# Measurements: patent US9095136B2, “2-IODO imidazole-derivatives” (BAYER INTELLECTUAL PROPERTY GMBH, priority 2011, dated 2015)
# Values joined by “and” are separate entries in the source; they are usually repeats but may differ in a detail not shown here. Equal entries are not always repeated.
# Assays:
# [1] = tested on: Fusarium graminearum; type: in vivo; settings: barley (heading), protective, 500 ppm, evaluation 5 days after inoculation
# [2] = tested on: Phytophthora infestans; type: in vivo; settings: tomato, preventative, 500 ppm, evaluation 5 days after inoculation
# [3] = tested on: Pyrenophora teres; test: Example R: preventative in vivo test with Pyrenophora teres (net blotch on barley); settings: 500 ppm, evaluation 12 days after inoculation
# Method: The active compounds tested are prepared by homogenization in a mixture of acetone/Tween/DMSO and then diluted with water to the desired active compound concentration. Barley plants (cultivar “Plaisant”), sown in a 50/50 peat/pozzolana soil substrate and cultivated at 22° C. (12 h)/20° C. (12 h), are treated at the 1-leaf stage (height 10 cm) by spraying with the active compound, prepared as above. As a control, plants are treated with the mixture of acetone/Tween/DMSO/water without the active compound. After 24 hours, the plants are inoculated by spraying the leaves with an aqueous suspension of Pyrenophora teres spores.
# [4] = tested on: Puccinia triticina; test: Example L: Puccinia triticina test (wheat)/protective; type: in vivo; settings: protective, 500 ppm, evaluation 8 days after inoculation
# Method: (§1) Solvent: 49 parts by weight of N,N-dimethylacetamide Emulsifier: 1 part by weight of alkylaryl polyglycol ether To produce a suitable preparation of active compound, 1 part by weight of active compound is mixed with the stated amounts of solvent and emulsifier, and the concentrate is diluted with water to the desired concentration. To test for protective activity, young plants are sprayed with the preparation of active compound at the stated application rate. After the spray coating has dried on, the plants are sprayed with spores with a spore suspension of Puccinia triticina.
# [5] = tested on: Pyrenophora teres; test: Example K: Pyrenophora teres test (barley)/protective; type: in vivo; settings: protective, 500 ppm, evaluation 8 days after inoculation
# Method: as §1, with “with” for “with spores with”, “Pyrenophora teres.” for “Puccinia triticina.”
# [6] = tested on: Septoria tritici; test: Example Z: Septoria tritici test (wheat)/protective, comparison; type: in vivo; settings: protective, application rate 250 ppm, evaluation 21 days after inoculation
# Method: as §1, with “active compound or active compound combination is mixed” for “active compound is mixed”, “active compound or active compound combination at the” for “active compound at the”, “sprayed with a spore” for “sprayed with spores with a spore”, “suspension of Septoria tritici.” for “suspension of Puccinia triticina.”
# [7] = tested on: Sphaerotheca fuliginea; test: Example V: preventative in vivo test with Sphaerotheca fuliginea (powdery mildew on cucumber); settings: 500 ppm, evaluation 12 days after inoculation
# Method: The active compounds tested are prepared by homogenization in a mixture of acetone/Tween/DMSO and then diluted with water to the desired active compound concentration. Cucumber plants (cultivar “Vert petit de Paris”), sown in a 50/50 peat/pozzolana soil substrate and cultivated at 24° C., are treated at the Z11 cotyledon stage by spraying with the active compound, prepared as above. As a control, plants are treated with the mixture of acetone/Tween/DMSO/water without the active compound. After 24 hours, the plants are inoculated by spraying the leaves with an aqueous suspension of Sphaerotheca fuliginea spores. The inoculated cucumber plants are incubated at about 20° C./25° C. and a relative atmospheric humidity of 60/70%.
# [8] = tested on: Uromyces appendiculatus; test: Example E: Uromyces test (bean)/protective; type: in vivo; settings: protective, 10 ppm, evaluation 10 days after inoculation
# Method: (§2) Solvents: 24.5 parts by weight of acetone • 24.5 parts by weight of dimethylacetamide Emulsifier: 1 part by weight of alkylaryl polyglycol ether To produce a suitable preparation of active compound, 1 part by weight of active compound is mixed with the stated amounts of solvent and emulsifier, and the concentrate is diluted with water to the desired concentration. To test for protective activity, young plants are sprayed with the preparation of active compound at the stated application rate. […] The plants are then placed in a greenhouse at about 21° C. and a relative atmospheric humidity of about 90%.
# [9] = tested on: Septoria tritici; test: Example I: Septoria tritici test (wheat)/protective; type: in vivo; settings: protective, 500 ppm, evaluation 21 days after inoculation
# Method: as §1, with “with” for “with spores with”, “Septoria tritici.” for “Puccinia triticina.”
# [10] = tested on: Alternaria solani; test: Example A: Alternaria test (tomato)/protective; type: in vivo; settings: protective, 500 ppm, evaluation 7 days after inoculation
# Method: Solvent: 49 parts by weight of N,N-dimethylformamide Emulsifier: 1 part by weight of alkylaryl polyglycol ether To produce a suitable preparation of active compound, 1 part by weight of active compound is mixed with the stated amounts of solvent and emulsifier, and the concentrate is diluted with water to the desired concentration. […] The plants then remain at 96% rel. atmospheric humidity and a temperature of 20° C.
# [11] = tested on: Septoria tritici; test: Example U: preventative in vivo test with Septoria tritici (leaf blotch disease on wheat); settings: 500 ppm, evaluation 21 to 28 days after inoculation
# Method: The active compounds tested are prepared by homogenization in a mixture of acetone/Tween/DMSO and then diluted with water to the desired active compound concentration. Wheat plants (cultivar “Scipion”), sown in a 50/50 peat/pozzolana soil substrate and cultivated at 22° C. (12 h)/20° C. (12 h), are treated at the 1-leaf stage (height 10 cm) by spraying with the active compound, prepared as above. As a control, plants are treated with the mixture of acetone/Tween/DMSO/water without the active compound. After 24 hours, the plants are inoculated by spraying the leaves with an aqueous suspension of cryogenically preserved Septoria tritici spores.
# [12] = tested on: Venturia inaequalis; test: Example D: Venturia test (apple)/protective; type: in vivo; settings: protective, 100 ppm, evaluation 10 days after inoculation
# Method: as §2, with “Solvent:” for “Solvents:”
smiles,measurement,setting,value
"OC(Cc1ccccc1Cl)(Cn1ccnc1I)C1(Cl)CC1 (stereo not drawn) [Example 1, 2-(1-chlorocyclopropyl)-1-(2-chlorophenyl)-3-(2-iodo-1H-imidazol-1-yl)propan-2-ol]",Eff. %,[1],100%
same,Efficacy %,[2],100%
same,Efficacy %,[3],100%
same,Eff. %,[4],100%
same,Eff. %,[5],100%
same,Efficacy in %,[6],86%
same,Efficacy %,[7],100%
same,Eff. %,[8],100% and 88%
same,Eff. %,[9],100%
same,Eff. %,[10],88%
same,Efficacy %,[11],100%
same,Eff. %,[12],100%
